# Values quoted from earlier work, collected in EP1398318A1, “Process for conducting chemical reactions in a liquid phase in the presence of a catalyst and a 1,3-substituted imidazolium salt” (BASF AKTIENGESELLSCHAFT, priority 2002, dated 2004).
# Molecular target: menschlichen Myeloperoxidase (Homo sapiens, UniProt P05164)
# Conditions: competitive with hydrogen peroxide at the active centre
# Sequence of menschlichen Myeloperoxidase (P05164 279-745 limits assumed): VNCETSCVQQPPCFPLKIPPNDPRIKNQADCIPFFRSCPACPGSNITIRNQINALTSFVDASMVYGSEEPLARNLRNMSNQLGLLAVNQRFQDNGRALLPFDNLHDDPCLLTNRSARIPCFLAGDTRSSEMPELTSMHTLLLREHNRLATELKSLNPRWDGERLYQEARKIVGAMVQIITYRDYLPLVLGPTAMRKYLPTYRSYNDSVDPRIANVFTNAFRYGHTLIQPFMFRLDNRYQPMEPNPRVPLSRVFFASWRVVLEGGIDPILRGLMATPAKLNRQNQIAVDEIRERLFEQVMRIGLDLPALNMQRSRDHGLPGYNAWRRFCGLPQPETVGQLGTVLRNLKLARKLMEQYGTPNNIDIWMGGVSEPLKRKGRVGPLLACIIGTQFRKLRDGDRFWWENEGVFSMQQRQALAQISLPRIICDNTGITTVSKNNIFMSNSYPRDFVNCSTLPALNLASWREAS
# Sequence of menschlichen Myeloperoxidase (P05164 165-278 limits assumed): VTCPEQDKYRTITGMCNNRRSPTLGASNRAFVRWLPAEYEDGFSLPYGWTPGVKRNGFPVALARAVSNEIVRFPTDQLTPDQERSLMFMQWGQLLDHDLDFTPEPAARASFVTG
smiles,measurement,value
Cl [Chlorid],bindet kompetitiv zu Wasserstoffperoxid am aktiven Zentrum des Enzyms,inhibierend
